{"source": "patent US20180000942A1", "about": "“COMPOSITIONS FOR DRUG ADMINISTRATION” (priority 2013, published 2018)", "key": {"blood D-glucose": {"test_system": "blood D-glucose", "assay": "Glucagon eye drops with surfactant, blood D-glucose", "conditions": "0.5% surfactant plus glucagon (30 μg) eye drops", "description": "Glucagon absorption from the eye was measured in rats given eye drops containing various surfactants plus glucagon (30 μg) (Eli Lilly, Indianapolis, Ind.) by monitoring an elevation in blood D-glucose levels. In these experiments, rats were anesthetized with sodium pentobarbital rather than xylazine/ketamin.\nPaired animals that receive eye drops containing the surfactant alone, or glucagon alone, were compared to animals receiving eye drops with the surfactant plus glucagon."}, "blood glucose [1]": {"test_system": "blood glucose", "assay": "Insulin eye drops with absorption enhancer in xylazine/ketamine anesthetized rats, blood glucose"}, "[2]": {"test_system": "Aspergillus niger (ATCC No. 16404)", "assay": "Log reduction of microorganisms in cultures with alkylglycoside", "assay_type": "cell-based", "conditions": "for Log reduction of cultures: PBS pH 7, 1 mg/mL PYY; for Log reduction of microorganisms: PBS pH 7, […] BSA", "from_the_text": "(§1) 20110-2209. The viable microorganisms used in the invention were not more than five passages removed from the original ATCC culture. As described herein, one passage is defined as the transfer of organisms from an established culture to fresh medium and all transfers are counted.\n(§2) The culture conditions for the inoculum culture is substantially as described in Table IV. For example, suitable media can include but is not limited to, Soybean-Casein Digest or Sabouraud Dextrose Agar Medium. […]\n(§3) The suspension should be refrigerated if it is not used within 2 hours. To confirm the initial cfu per mL estimate, the number of cfu per mL in each suspension was determined using the conditions of media and microbial recovery incubation times listed in Table IV (e.g., from about 3 to about 7 days). This value serves to calibrate the size of inoculum used in the test. The bacterial and yeast suspensions were used within 24 hours of harvest; whereas the fungal preparation can be stored under refrigeration for up to 7 days.\n(§4) To determine which alkylglycoside formulations have antibacterial activity, the formulations were prepared in phosphate buffered saline (PBS) at pH 7. As a source of nutrition, either 1.5 mg/mL bovine serum albumin (BSA; see Tables V and VI) or 1 mg/mL of PYY was added (see Table VII) to the medium. BSA (CAS Number: 9048-46-8) was obtained from Sigma-Aldrich, St. Louis, Mo., USA, n-dodecyl-4-O-α-D-glucopyranosyl-β-D-glucopyranoside and n-tetradecyl-4-O-α-D-glucopyranosyl-β-D-glucopyranoside were obtained from Anatrace Inc., Maumee, Ohio, USA, and PYY was obtained from Bachem California Inc., Torrance, Calif., USA.\n(§5) Antibacterial activity of the alkylglycosides were conducted in four sterile, capped bacteriological containers of suitable size into which a sufficient volume of alkylglycoside solution had been transferred. Each container was inoculated with one of the prepared and standardized inoculums and mixed. The volume of the suspension inoculum was between about 0.5% and about 1.0% of the volume of the alkylglycoside solution. […]. To determine the level of inhibition of growth, or reduction of growth based on a logarithmic scale, the initial concentration of viable microorganisms in each test preparation was estimated based on the concentration of microorganisms in each of the standardized inoculum as determined by the plate-count method. The inoculated containers were then incubated at about 22.5° C.±2.5. The growth or non-growth of the microorganisms in each culture/container were again determined at day 14 and day 28. The number of cfu present in each calculation was determined by the plate-count procedure standard in the art for the applicable intervals. The change in the orders of magnitude of bacterium and/or fungi was then determined by subtracting the first calculated log 10 values of the concentrations of cfu per mL present at the start or beginning (e.g., day 0), from the log 10 values of the concentration of cfu per mL for each microorganism at the applicable test intervals (e.g., day 14 and day 28; see Tables V, VI and VII)."}, "[3]": {"test_system": "Candida albicans (ATCC No. 10231)", "assay": "Log reduction of microorganisms in cultures with alkylglycoside", "assay_type": "cell-based", "conditions": "for Log reduction of cultures: PBS pH 7, 1 mg/mL PYY; for Log reduction of microorganisms: PBS pH 7, […] BSA", "from_the_text": "as §1, §2, §3, §4, §5"}, "[4]": {"test_system": "Escherichia coli (ATCC No. 8739)", "assay": "Log reduction of microorganisms in cultures with alkylglycoside", "assay_type": "cell-based", "conditions": "for Log reduction of cultures: PBS pH 7, 1 mg/mL PYY", "from_the_text": "as §1, §2, §3, §4, §5"}, "[5]": {"test_system": "Staphylococcus aureus (ATCC No. 6538)", "assay": "Log reduction of microorganisms in cultures with alkylglycoside", "assay_type": "cell-based", "conditions": "for Log reduction of cultures: PBS pH 7, 1 mg/mL PYY; for Log reduction of microorganisms: PBS pH 7, […] BSA", "from_the_text": "as §1, §2, §3, §4, §5"}, "[6]": {"assay": "Oral phenylephrine tablets with alkylsaccharide", "assay_type": "in vivo, canine", "procedure": "In a canine model, subjects were dosed orally with various phenylephrine (PE) tablet formulations, and blood samples were taken to determine the rate of parent phenyl ethyl phenylephrine absorption. Blood levels of parent phenylephrine were measured. Three subject groups were created with each alkylsaccharide test group containing five subjects in each test group. All subject groups received 10 mg of phenylephrine as a single tablet. Each subject was in the fasting state for overnight and two hours post dose. Blood samples were taken at pre-dose, 5, 10, 15, 30, 45 min., 1, 2, and 3 hours.\nComparator was the standard 30 mg (total weight including excipients) phenylephrine tablet was no absorption enhancer. Group number 2 tablets contain the alkylsaccharide designated A3, which is n-dodecyl-beta-D-maltoside in the amounts of 2.5 mg, 5 mg, and 7.5 mg, respectively. Group number three tablets contain the alkylsaccharide designated B3, which is sucrose monododecanoate, in the amounts of 5 mg, 10 mg, and 20 mg, respectively."}, "[7]": {"conditions": "no alkylsaccharide, cited from earlier work"}, "human nasal epithelium": {"test_system": "human nasal epithelium", "assay": "Irritation of nasal mucosa on daily intranasal administration", "conditions": "47 days"}, "food intake": {"test_system": "food intake", "conditions": "injection; cited from earlier work"}, "blood glucose [8]": {"test_system": "blood glucose", "assay": "Intranasal insulin with […] TDM in anesthesia-induced hyperglycemia model", "assay_type": "in vivo, mouse", "conditions": "minus […] TDM", "from_the_text": "Intranasal administration of drugs or agents are possible in animal models e.g. mice and rats, although the nasal opening in is very small. In the experiments and results described herein, an anesthesia-induced hyperglycemia model was used (described in Examples above). Hyperglycemic animals were induced by an intraperitoneal (IP) injection containing xylazine-ketamine and blood glucose levels were monitored over a period of time. Immediately after the xylazine-ketamine injection, there was an increase in the blood glucose levels as shown in FIG. 2 (closed dark circles), and blood glucose levels were about 450 mg/dl. […] Blood glucose levels peak to about 482 mg/dl by 30 minutes after the xylazine-ketamine injection (FIG. 2). […] At about the 75 minute time point, blood glucose levels gradually returned to the baseline level in a normoglycemic mouse, or about 80-100 mg/dl."}}, "data": [{"molecule": "CCCCCCCCCCO[C@@H]1O[C@H](CO)[C@@H](O[C@H]2O[C@H](CO)[C@@H](O)[C@H](O)[C@H]2O)[C@H](O)[C@H]1O", "note": "[Decyl Maltoside, decyl-β-D-maltoside]", "values": [{"measurement": "level of D-glucose in blood after eye drops with surfactant plus glucagon, in words", "setting": "blood D-glucose", "result": "increase significantly"}, {"measurement": "effect as absorption enhancer for ocular insulin (blood glucose lowering), in words", "setting": "blood glucose [1]; 0.5% enhancer", "result": "prompt and sustained fall in blood glucose levels"}]}, {"molecule": "CCCCCCCCCCCCO[C@@H]1O[C@H](CO)[C@@H](O[C@H]2O[C@H](CO)[C@@H](O)[C@H](O)[C@H]2O)[C@H](O)[C@H]1O", "note": "[Dodecyl Maltoside, n-Dodecyl-4-O-α-D-glucopyranosyl-β-D-glucopyranoside]", "values": [{"measurement": "Log reduction of cultures", "setting": "[2]; Day 14", "result": "4.7 orders of orders of magnitude reduction"}, {"measurement": "Log reduction of cultures", "setting": "[2]; Day 28", "result": "4.7 orders of orders of magnitude reduction"}, {"measurement": "Log reduction of microorganisms", "setting": "[2]; Day 14", "result": "0.7 orders of orders of magnitude reduction"}, {"measurement": "Log reduction of microorganisms", "setting": "[2]; Day 28", "result": "No growth"}, {"measurement": "Log reduction of cultures", "setting": "[3]; Day 14", "result": "≧4.5 orders of orders of magnitude reduction"}, {"measurement": "Log reduction of cultures", "setting": "[3]; Day 28", "result": "≧4.5 orders of orders of magnitude reduction"}, {"measurement": "Log reduction of microorganisms", "setting": "[3]; Day 14", "result": "3.0 orders of orders of magnitude reduction"}, {"measurement": "Log reduction of microorganisms", "setting": "[3]; Day 28", "result": "≧5.3 orders of orders of magnitude reduction"}, {"measurement": "Log reduction of cultures", "setting": "[4]; Day 14", "result": "≧5 orders of orders of magnitude reduction"}, {"measurement": "Log reduction of cultures", "setting": "[4]; Day 28", "result": "≧5 orders of orders of magnitude reduction"}, {"measurement": "Log reduction of microorganisms", "setting": "[4]; PBS pH 7, […] BSA, Day 28", "result": "0.1 orders of orders of magnitude reduction"}, {"measurement": "Log reduction of cultures", "setting": "[5]; Day 14", "result": "≧4.9 orders of orders of magnitude reduction"}, {"measurement": "Log reduction of cultures", "setting": "[5]; Day 28", "result": "≧4.9 orders of orders of magnitude reduction"}, {"measurement": "Log reduction of microorganisms", "setting": "[5]; Day 14", "result": "≧5.2 orders of orders of magnitude reduction"}, {"measurement": "Log reduction of microorganisms", "setting": "[5]; Day 28", "result": "≧5.2 orders of orders of magnitude reduction"}, {"measurement": "increase of oral bioavailability of phenylephrine in compressed tablets", "setting": "[6]; dog, in vivo, po", "result": "up to 56%"}, {"measurement": "effect as absorption enhancer for ocular insulin (blood glucose lowering), in words", "setting": "blood glucose [1]; 0.5% enhancer", "result": "equally effective"}, {"measurement": "effect as absorption enhancer for ocular insulin (blood glucose lowering), in words", "setting": "blood glucose [1]; 0.5% enhancer, listed as dodecyl-β-D-maltoside", "result": "prompt and sustained fall in blood glucose levels"}]}, {"molecule": "CCCCCCCCCCCCCO[C@@H]1O[C@H](CO)[C@@H](O[C@H]2O[C@H](CO)[C@@H](O)[C@H](O)[C@H]2O)[C@H](O)[C@H]1O", "note": "[Tridecyl Maltoside, tridecyl-β-D-maltoside]", "values": [{"measurement": "level of D-glucose in blood after eye drops with surfactant plus glucagon, in words", "setting": "blood D-glucose", "result": "increase significantly"}, {"measurement": "effect as absorption enhancer for ocular insulin (blood glucose lowering), in words", "setting": "blood glucose [1]; 0.5% enhancer", "result": "effective"}, {"measurement": "effect as absorption enhancer for ocular insulin (blood glucose lowering), in words", "setting": "blood glucose [1]; […] enhancer", "result": "sustained for the two hour time course of the experiment"}]}, {"molecule": "CCCCCCCOC1O[C@H](CO)[C@@H](O)[C@H](O)[C@H]1O", "note": "(stereo partly shown) [heptylglucoside, heptylglucopyranoside]", "values": [{"measurement": "effect as absorption enhancer for ocular insulin (blood glucose lowering), in words", "setting": "blood glucose [1]; 0.5% enhancer", "result": "ineffective"}]}, {"molecule": "CCCCCCOC1O[C@H](CO)[C@@H](O)[C@H](O)[C@H]1O", "note": "(stereo partly shown) [hexylglucoside, Hexylglucopyranoside]", "values": [{"measurement": "effect as absorption enhancer for ocular insulin (blood glucose lowering), in words", "setting": "blood glucose [1]; 0.5% enhancer", "result": "ineffective"}]}, {"molecule": "CCCCCCCCCOC1O[C@H](CO)[C@@H](O)[C@H](O)[C@H]1O", "note": "(stereo partly shown) [nonylglucoside, nonylglucopyranoside]", "values": [{"measurement": "effect as absorption enhancer for ocular insulin (blood glucose lowering), in words", "setting": "blood glucose [1]; 0.5% enhancer", "result": "effectively stimulated insulin absorption"}, {"measurement": "blood glucose level before reduction (from)", "setting": "blood glucose [1]; eye drops insulin + 0.5% enhancer, initial value", "result": 297, "unit": "mg/dL"}, {"measurement": "blood glucose level after reduction (to)", "setting": "blood glucose [1]; eye drops insulin + 0.5% enhancer, reduced value", "result": 150, "unit": "mg/dL"}]}, {"molecule": "Cc1cc2c(s1)Nc1ccccc1N=C2N1CCN(C)CC1", "note": "[olanzapine, Olanzapine]", "values": [{"measurement": "time to peak concentrations", "setting": "[7]; following an oral dose", "result": "approximately 6 hours"}, {"measurement": "dose metabolized by first pass before reaching the systemic circulation", "setting": "[7]", "result": "approximately 40%"}]}, {"molecule": "CCCCCCCCCCCC(=O)OC[C@H]1O[C@H](O[C@]2(CO)O[C@H](CO)[C@@H](O)[C@@H]2O)[C@H](O)[C@@H](O)[C@@H]1O", "note": "[sucrose dodecanoate, sucrose monododecanoate]", "values": [{"measurement": "increase of oral bioavailability of phenylephrine in compressed tablets", "setting": "[6]; maximum over the loadings tested", "result": "up to 50%"}, {"measurement": "irritation of the nasal mucosa", "setting": "human nasal epithelium", "result": "no observable irritation"}]}, {"molecule": "PYY: gut hormone fragment peptide PYY3-36", "values": [{"measurement": "reduction of food eaten versus usual", "setting": "food intake", "result": 30, "unit": "%"}]}, {"molecule": "decylsucrose", "values": [{"measurement": "Blood Glucose Concentration", "setting": "blood glucose [1]; eye drops insulin + 0.5% enhancer, time 0 min", "result": 313, "unit": "mg/dL"}, {"measurement": "Blood Glucose Concentration", "setting": "blood glucose [1]; eye drops insulin + 0.5% enhancer, time 120 min", "result": 164, "unit": "mg/dL"}]}, {"molecule": "insulin alone: insulin (Humalog), same dosage, minus 0.25% TDM", "values": [{"measurement": "return of blood glucose to normoglycemic levels", "setting": "blood glucose [8]", "result": "never return to normoglycemic levels"}, {"measurement": "time at which blood glucose levels start to decline", "setting": "blood glucose [8]; same dosage", "result": "~120", "unit": "minute time mark"}]}]}
